What was measured:
[1] = Profiling of absorbed constituents and metabolites in mice plasma after oral administration of RA (UFLC-DAD-Q-TOF-MS/MS); settings: oral RA extract 6 g/kg BW; cyclophosphamide-induced immunosuppressed Balb/c mice; plasma sampled 0.25-36 h; '-' = not detected
Experimental: The peaks that appeared at the same position in the total ion chromatograms of both the dosed mice bio-samples and the RA extract, but not in the chromatograms of the controlled mice bio-samples, were regarded as absorbed constituents [22].
Following randomization into study groups, mice (6/group/male) received intraperitoneal injection once daily of cyclophosphamide (i.p. 80 mg/kg BW) for 6 days. Additionally, the control group was injected intraperitoneally with sterile physiological saline. […] Plasma was harvested by centrifugation at 3000× g for 10 min and then kept frozen at −70 °C until analysis.
After being vortexed for 1 min, the sample was centrifuged at 13,000× g at 4 °C for 30 min. The supernate was transferred into a fresh tube and evaporated with nitrogen. Then, the residue was dissolved in a 60-μL mobile phase with vortex mixing for 3 min and centrifuged at 13,000× g for 30 min. Finally, 10 μL of the supernatant were injected into the UFLC/DAD/Q-TOF-MS/MS system.
The multiple constituents in RA and the absorbed compounds in mice plasma were identified by the ultra-fast liquid chromatography/diode-array detector/quadrupole time-of-flight tandem mass spectrometry (UFLC/DAD/Q-TOF-MS/MS) method.

[2] = Pharmacokinetics of five main constituents in immunosuppressive mice plasma after oral administration of RA (HPLC-MS/MS); assay type: in vivo, Balb/c mice; settings: immunosuppressive Balb/c mice plasma; for AUC(0-t) / AUC(0-inf) / Cmax / half-life / Tmax: male, mouse, oral RA extract 6 g/kg BW; for AUC(0-t): 0-36 h, read-out: AUC(0–t); for AUC(0-inf): read-out: AUC(0–∞); for Cmax: read-out: Cmax; for half-life: read-out: t1/2z (converted); for Tmax: read-out: tmax
Experimental: The maximum plasma concentration (Cmax) and the time of maximum plasma concentration (tmax) were obtained from the observed data (Table 3). The plasma concentration-time profiles for calycosin-7-O-glucoside, ononin, calycosin, formononetin and astragaloside IV are shown in Figure 4.
To quantify calycosin-7-O-glucoside, ononin, calycosin, formononetin and astragaloside IV in mice, a 10-μL IS solution was added into 50 μL of plasma and mixed for 30 s. Then, 1 mL ethyl acetate was added to the tube and vortexed for 3 min. […] Ten microliters of the supernatant were injected into the HPLC-MS/MS system.
The quantification was performed by an LC-MS/MS system, which consisted of an Agilent 1200 HPLC series system and an Agilent 6410 triple quadrupole mass spectrometer (Agilent Technol., Santa Clara, CA, USA) equipped with an electrospray ionization source. Samples were separated by a rapid resolution HT C18 column (2.1 mm × 50 mm, 1.8 μm, Agilent Technol.) at 30 °C. The mobile phase consisted of 0.1 formic acid both in methanol (A) and water (B) using a gradient elution program of 25%–50% A (0–5 min) and 50%–90% (5–10 min). The flow rate was 0.2 mL/min, and the injection volume was 10 μL. Detection was performed in the positive ion mode using multiple reaction monitoring (MRM) of the m/z 447.1/285.0 for calycosin-7-O-glucoside, m/z 431.1/269.0 for ononin, m/z 285.0/137.0 for calycosin, m/z 269.0/213.0 for formononetin, m/z 807.4/627.3 for astragaloside IV and m/z 271.1/151.0 for naringenin.

Row | Compound | Source: Dosed Plasma (time points at which the compound was detected) [1] [h] | other results
1 | N[C@@H](Cc1ccccc1)C(=O)O (single isomer, unassigned) [Peak 11, Phenylalanine] | 0.25 to 36 | 
2 | N[C@@H](Cc1c[nH]c2ccccc12)C(=O)O (single isomer, unassigned) [Peak 14, Tryptophan] | 0.25 to 36 | 
3 | N[C@@H](Cc1ccc(O)cc1)C(=O)O (single isomer, unassigned) [Peak 16, Tyrosine] | 0.25 to 36 | 
4 | COc1cc(/C=C/CO)cc(OC)c1O[C@@H]1O[C@H](CO)[C@@H](O)[C@H](O)[C@H]1O (single isomer, unassigned) [Peak 24, Syringin] | 0.25 to 36 | 
5 | COc1ccc(-c2coc3cc(O[C@@H]4O[C@H](CO)[C@@H](O)[C@H](O)[C@H]4O)ccc3c2=O)cc1 (single isomer, unassigned) [Peak 33, Ononin] | 0.25 to 24 | double-peak phenomenon, time of second peak ([2]; after oral administration of RA): 4 h; AUC(0-t) [2]: 228 ± 59.7 ng·h/mL; AUC(0-inf) [2]: 239 ± 47.4 ng·h/mL; Cmax [2]: 51.4 ng/mL; half-life [2]: 1.96 ± 0.34 h; Tmax [2]: 1.5 h
6 | C[C@@H]1O[C@@H](O[C@H]2[C@H](O[C@H]3[C@H](O[C@H]4CC[C@@]5(C)[C@@H](CC[C@]6(C)[C@@H]5CC=C5[C@@H]7CC(C)(C)C[C@@H](O)[C@]7(C)CC[C@]56C)[C@@]4(C)CO)O[C@H](C(=O)O)[C@@H](O)[C@@H]3O)O[C@H](CO)[C@H](O)[C@@H]2O)[C@H](O)[C@H](O)[C@H]1O (single isomer, unassigned) [Peak 47, Soyasaponin I] | 0.25 to 24 | 
7 | CC(C)(O)[C@@H]1CC[C@](C)([C@H]2[C@@H](O)C[C@@]3(C)[C@@H]4C[C@H](O[C@@H]5O[C@H](CO)[C@@H](O)[C@H](O)[C@H]5O)[C@H]5C(C)(C)[C@@H](O[C@@H]6OC[C@@H](O)[C@H](O)[C@H]6O[C@@H]6O[C@H](CO)[C@@H](O)[C@H](O)[C@H]6O)CC[C@@]56C[C@@]46CC[C@]23C)O1 (single isomer, unassigned; peak 41) [Peak 41, Astragaloside VI] | 0.25 to 24 | 
8 | C[C@@H]1O[C@@H](O[C@H]2[C@H](O[C@H]3[C@H](O[C@H]4CC[C@@]5(C)[C@@H](CC[C@]6(C)[C@@H]5CC=C5[C@@H]7CC(C)(C)C[C@@H](O)[C@]7(C)CC[C@]56C)[C@@]4(C)CO)O[C@H](C(=O)O)[C@@H](O)[C@@H]3O)OC[C@@H](O)[C@@H]2O)[C@H](O)[C@H](O)[C@H]1O (single isomer, unassigned; peak 48) [Peak 48, Astragaloside VIII] | 0.25 to 24 | 
9 | NCCCC(=O)O [Peak 5, γ-Aminobutyric acid] | 0.25 to 36 | 
10 | COc1cc(C(=O)O)cc(OC)c1O [Peak 20, Syringic acid] | 0.25 to 36 | 
11 | COc1cc(C=O)cc(OC)c1O [Peak 23, Syringaldehyde] | 0.25 to 6 | 
12 | COc1cc(/C=C/C(=O)O)ccc1O [Peak 25, Ferulic acid] | 0.25 to 36 | 
13 | COc1ccc(/C=C/C(=O)O)cc1O [Peak 27, Isoferulic acid] | 0.25 to 36 | 

Now from value to compound, other results behind:

Row | Source: Dosed Plasma (time points at which the compound was detected) [1] [h] | Compound | other results
14 | 1 to 36 | NC(=O)C[C@H](N)C(=O)O (single isomer, unassigned) [Peak 2, Asparagine] | 
15 | 0.25 to 36 | CC(C)C[C@H](N)C(=O)O (single isomer, unassigned) [Peak 9, Leucine] | 
16 | 0.25 to 36 | Nc1ncnc2c1ncn2[C@@H]1O[C@H](CO)[C@@H](O)[C@H]1O (single isomer, unassigned) [Peak 10, Adenine nucleoside] | 
17 | 0.25 to 8 | COc1cc(O[C@H]2O[C@H](CO)[C@H](O)[C@H](O)[C@H]2O[C@H]2OC[C@@](O)(CO)[C@H]2O)ccc1O (single isomer, unassigned) [Peak 13, Markhamioside F] | 
18 | 0.25 to 6 | COc1cc(O)c2c(=O)c(O[C@@H]3O[C@H](CO)[C@@H](O)[C@H](O)[C@H]3O)c(-c3ccc(O[C@@H]4O[C@H](CO)[C@@H](O)[C@H](O)[C@H]4O)cc3)oc2c1 (single isomer, unassigned) [Peak 18, Rhamnocitrin 3,4'-di-O-glucoside] | 
19 | 0.25 to 8 | COc1ccc(-c2coc3cc(O[C@@H]4O[C@H](CO)[C@@H](O)[C@H](O)[C@H]4O)cc(O)c3c2=O)cc1O (single isomer, unassigned) [Peak 26, Pratensein-7-O-glucoside] | 
20 | 0.25 to 24 | COc1ccc(-c2coc3cc(O[C@@H]4O[C@H](CO)[C@@H](O)[C@H](O)[C@H]4O)ccc3c2=O)cc1O (single isomer, unassigned) [Peak 29, Calycosin-7-O-glucoside] | AUC(0-t) [2]: 108 ± 37.1 ng·h/mL; AUC(0-inf) [2]: 127 ± 40.3 ng·h/mL; Cmax [2]: 33.4 ng/mL; half-life [2]: 2.61 ± 0.67 h; Tmax [2]: 1.5 h
21 | 0.25 to 36 | O=c1cc(-c2ccc(O)cc2)oc2cc(O[C@@H]3O[C@H](CO)[C@@H](O)[C@H](O)[C@H]3O)cc(O)c12 (single isomer, unassigned) [Peak 30, Cosmosiin] | 
22 | 0.25 to 12 | COc1ccc2c(c1OC)OC1c3ccc(O[C@@H]4O[C@H](CO)[C@@H](O)[C@H](O)[C@H]4O)cc3OCC21 (single isomer, unassigned) [Peak 34, 9,10-dimethoxypterocarpan-3-O-glucoside] | 
23 | 0.25 to 36 | CCCCC=CC=CC(=O)O (single isomer, unassigned) [Peak 35, 2,4-Nonadienic acid] | 
24 | 0.25 to 8 | COc1ccc(-c2coc3cc(O[C@@H]4O[C@H](COC(C)=O)[C@@H](O)[C@H](O)[C@H]4O)ccc3c2=O)cc1 (single isomer, unassigned) [Peak 38, 6'-O-acetyl ononin] | 
25 | 3 | CC(CCC(O)C(C)(C)O)C1C(O)CC2(C)C3CC(OC4OC(CO)C(O)C(O)C4O)C4C(C)(C)C(OC5OCC(O)C(O)C5O)CCC45CC35CCC12C (single isomer, unassigned) [Peak 43, Cyclocanthoside E] | 
26 | 0.25 to 24 | CC(C)(O[C@@H]1O[C@H](CO)[C@@H](O)[C@H](O)[C@H]1O)[C@@H]1CC[C@](C)([C@H]2[C@@H](O)C[C@@]3(C)[C@@H]4C[C@H](O)[C@H]5C(C)(C)[C@@H](O[C@@H]6OC[C@@H](O)[C@H](O)[C@H]6O[C@@H]6O[C@H](CO)[C@@H](O)[C@H](O)[C@H]6O)CC[C@@]56C[C@@]46CC[C@]23C)O1 (single isomer, unassigned; peak 40) [Peak 40, Astragaloside V] | 
27 | 0.25 to 36 | C[N+](C)(C)CCO [Peak 4, Choline] | 
28 | 0.25 to 36 | O=C(O)c1ccc(O)c(O)c1 [Peak 12, Protocatechuic acid] | 
29 | 0.25 to 36 | O=C(O)CCCCCCCC(=O)O [Peak 32, Azelaic acid] | 
30 | 0.25 to 8 | COc1ccc(-c2coc3cc(OC4OC(C(=O)O)C(O)C(O)C4O)ccc3c2=O)cc1 (stereo not drawn) [Peak M3, Glucuronidated formononetin] | 
31 | 0.25 to 8 | Sulfated calycosin [Peak M1] | 
32 | 0.25 to 8 | Sulfated formononetin [Peak M6] | 
33 | 0.25 to 8 | Sulfated isomucronulatol [Peak M5] | 

Source: PMC4394464, “Identification and Pharmacokinetics of Multiple Potential Bioactive Constituents after Oral Administration of Radix Astragali on Cyclophosphamide-Induced Immunosuppression in Balb/c Mice” (International Journal of Molecular Sciences, 2015)
